Here are results for 78 molecules from the RepoRT retention time repository (doi:10.1021/acs.analchem.2c02893).

The nature of the data set: RP, Thermo Scientific Acclaim RSLC 120 C18, 100 × 2.1 mm, 2.2 µm, 30 °C, 0.2 mL/min, estimated dead time 1.1 min; A: 90% water + 10% methanol + 0.01% formic acid + 5 mM ammonium formate, pH 3.61; B: methanol + 0.01% formic acid + 5 mM ammonium formate, pH 3.61; gradient (min/%B) 0/1 1/1 2/39 13/99.9 15/99.9 15.1/1 20.1/1. The conditions noted are these: stereoisomer not certain.

For the molecule `CCN(CC)CCOC(=O)C1(C2CCCCC2)CCCCC1` [Dicycloverine], the LC retention time was 9.99 min. Regarding `CCCCCCCCCC[N+](C)(C)CCCCCCCCCC` [Didecyldimethylammonium (DADMAC (C10:C10))], the LC retention time was 12.6 min. In the case of `CC12CCC3=C4CCC(=O)C=C4CCC3C1CCC2(O)CC#N` (stereo not drawn) [Dienogest], the LC retention time was 8.09 min.

`CCN(CC)CCN1c2ccccc2Sc2ccccc21` [Diethazine]: the LC retention time is 7.76 min. `CCOc1ccc(NC(=O)OC(C)C)cc1OCC` [Diethofencarb]: the LC retention time was 9.04 min. The result for `CC1COC(Cn2cncn2)(c2ccc(Oc3ccc(Cl)cc3)cc2Cl)O1` (stereo not drawn) [Difenoconazole] reads 11.6 min; that for `COc1ccc(Oc2ccc(NC(=O)N(C)C)cc2)cc1` [Difenoxuron], 8.43 min; that for `Cn1c(-c2ccccc2)cc(-c2ccccc2)[n+]1C` [Difenzoquat (Ion 1+)], 5.21 min. As to `CN1CCN(c2cc3c(cc2F)c(=O)c(C(=O)O)cn3-c2ccc(F)cc2)CC1` [Difloxacin], the LC retention time was 4.96 min.

Regarding `O=C(NC(=O)c1c(F)cccc1F)Nc1ccc(Cl)cc1` [Diflubenzuron], the LC retention time is 10.6 min. In the case of `O=C(Nc1ccc(F)cc1F)c1cccnc1Oc1cccc(C(F)(F)F)c1` [Diflufenican], the LC retention time is 11.7 min. For the molecule `CC(=NNC(=O)Nc1cc(F)cc(F)c1)c1ncccc1C(=O)O` [Diflufenzopyr], the LC retention time is 6.22 min. Turning to `COCCOCCOC` [Diglyme], the LC retention time is 3.9 min. Regarding `CC1(C)OCC2OC3(C(=O)O)OC(C)(C)OC3C2O1` (stereo not drawn) [Dikegulac], the LC retention time is 4.76 min. As to `COc1ccc(C2Sc3ccccc3N(CCN(C)C)C(=O)C2O)cc1` (stereo not drawn) [Diltiazem-Deacetyl], the LC retention time is 6.41 min. Regarding `CNCCN1C(=O)C(OC(C)=O)C(c2ccc(OC)cc2)Sc2ccccc21` (stereo not drawn) [Diltiazem-Nor], the LC retention time was 7.21 min. Regarding `COc1ccc(C2Sc3ccccc3N(CCN(C)C)C(=O)C2OC(C)=O)cc1` (stereo not drawn) [Diltiazem], the LC retention time was 7.18 min. In the case of `CN(C)C(=O)Nc1ccc(-n2nc(C(C)(C)C)oc2=O)c(Cl)c1` [Dimefuron], the LC retention time is 8.76 min. `COCCN(C(=O)CS(=O)(=O)O)c1c(C)cccc1C` [Dimethachlor-ESA]: the LC retention time is 5.54 min. The result for `COCCN(C(=O)CCl)c1c(C)cccc1C` [Dimethachlor] reads 8.58 min; that for `COCC(C)N(C(=O)CS(=O)(=O)O)c1c(C)csc1C` (stereo not drawn) [Dimethenamide-ESA], 6.28 min. Take `COCC(C)N(C(=O)C(=O)O)c1c(C)csc1C` (stereo not drawn) [Dimethenamide-OXA]: the LC retention time is 6.36 min.

Turning to `COCC(C)N(C(=O)CCl)c1c(C)csc1C` (stereo not drawn) [Dimethenamide], the LC retention time is 9.26 min.

As to `CC1=C(C)S(=O)(=O)CCS1(=O)=O` [Dimethipin], the LC retention time is 3.73 min.

As for `CCCCc1c(C)nc(N(C)C)[nH]c1=O` [Dimethirimol], the LC retention time was 7.7 min. Then `CNC(=O)CSP(=S)(OC)OC` [Dimethoate], with 5.23 min; and `CCN(CC)CC(C)(C)COC(=O)c1ccc(N)cc1` [Dimethocain], with 4.24 min. Regarding `COc1ccc(C(=CC(=O)N2CCOCC2)c2ccc(Cl)cc2)cc1OC` [Dimethomorph], the LC retention time was 9.22 min.

For `CN(C)c1ccccc1` [Dimethylanilin (N.N-)], the LC retention time is 6.26 min. For `Cc1ccc(N)c(C)c1` [Dimethylaniline (2.4-) (Metabolite Amitraz)], the LC retention time was 5.04 min. Regarding `CCCCCCCCCCCCCCCCCC[N+](C)(C)CCCCCCCCCCCCCCCCCC` [Dimethyldioctadecylammonium], the LC retention time is 15 min.

For `COP(=O)(OC)OC(=CCl)c1ccc(Cl)cc1Cl` [Dimethylvinphos], the LC retention time is 9.86 min. Regarding `CC(C1=C(CCN(C)C)Cc2ccccc21)c1ccccn1` (stereo not drawn) [Dimetindene], the LC retention time was 6.86 min. For the molecule `CC(CN1c2ccccc2Sc2ccc(S(=O)(=O)N(C)C)cc21)N(C)C` (stereo not drawn) [Dimetotiazine], the LC retention time was 7.01 min. Consider `Cc1ncc([N+](=O)[O-])n1C` [Dimetridazole], for which the LC retention time was 4.27 min. Take `CNC(=O)C(=NOC)c1ccccc1COc1cc(C)ccc1C` [Dimoxystrobin]: the LC retention time was 10.7 min. With `CC(C)(C)C(O)C(=Cc1ccc(Cl)cc1Cl)n1cncn1` (stereo not drawn) [Diniconazole], the LC retention time is 11.5 min. Turning to `CC=CC(=O)Oc1c(C(C)CCCCCC)cc([N+](=O)[O-])cc1[N+](=O)[O-]` (stereo not drawn) [Dinocap], the LC retention time is 13.1 min.

Regarding `CNC(=N[N+](=O)[O-])NCC1CCOC1` (stereo not drawn) [Dinotefuran], the LC retention time is 3.59 min. Turning to `CC1CCC2(OC1)OC1CC3C4CC=C5CC(O)CCC5(C)C4CCC3(C)C1C2C` (stereo not drawn) [Diosgenin], the LC retention time is 15.1 min. Regarding `CNC(=O)Oc1ccccc1C1OCCO1` [Dioxacarb], the LC retention time is 5.16 min. Turning to `CCOP(=S)(OCC)SC1OCCOC1SP(=S)(OCC)OCC` (stereo not drawn) [Dioxathion], the LC retention time is 12.1 min. For the molecule `CCNC(C)C(O)c1ccc(O)c(O)c1` (stereo not drawn) [Dioxethedrin], the LC retention time is 1.99 min. Consider `CCCc1nn(C)c2c(=O)[nH]c(-c3cc(C(=O)CN4CCN(CC)C(=O)C4=O)ccc3OCC)nc12` [Dioxohongdenafil], for which the LC retention time was 8.18 min. Turning to `O=C1c2ccccc2C(=O)C1C(=O)C(c1ccccc1)c1ccccc1` [Diphacinone], the LC retention time is 8.6 min. For the molecule `CN(C)C(=O)C(c1ccccc1)c1ccccc1` [Diphenamide], the LC retention time was 8.57 min. For the molecule `CN(C)CCOC(c1ccccc1)c1ccccc1` [Diphenhydramine], the LC retention time is 6.63 min. Take `CCOC(=O)C1(c2ccccc2)CCN(CCC(C#N)(c2ccccc2)c2ccccc2)CC1` [Diphenoxylate]: the LC retention time is 10.4 min.

As to `CC(C)CC(C)Nc1ccc(Nc2ccccc2)cc1` (stereo not drawn) [Diphenylamin-4-(dimethylbutylamino) (6PPD)], the LC retention time was 9.92 min.

On to `c1ccc(Nc2ccccc2)cc1` [Diphenylamine], for which the LC retention time was 10.1 min. Turning to `CN1CCC(OC(c2ccccc2)c2ccccc2)CC1` [Diphenylpyraline], the LC retention time was 7.23 min. As to `Cn1c(=O)c2c(ncn2CC(O)CO)n(C)c1=O` (stereo not drawn) [Diprophylline], the LC retention time was 3.76 min. For the molecule `OCCN(CCO)c1nc(N2CCCCC2)c2nc(N(CCO)CCO)nc(N3CCCCC3)c2n1` [Dipyridamole], the LC retention time is 9.36 min.

As to `Cc1c(N(C)CS(=O)(=O)O)c(=O)n(-c2ccccc2)n1C` [Dipyron (Metamizol)], the LC retention time is 4.49 min. With `CC(C)N(CCC(C(N)=O)(c1ccccc1)c1ccccn1)C(C)C` (stereo not drawn) [Disopyramide], the LC retention time is 4.74 min. The result for `CCOP(=S)(OCC)SCCS(=O)(=O)CC` [Disulfoton-sulfone] reads 8.02 min. For `CCOP(=S)(OCC)SCCS(=O)CC` (stereo not drawn) [Disulfoton-sulfoxide], the LC retention time was 7.86 min.

As to `CCOP(=S)(OCC)SCCSCC` [Disulfoton], the LC retention time is 11.5 min.

Turning to `CCOP(=S)(OCC)N1C(=O)c2ccccc2C1=O` [Ditalimfos], the LC retention time is 10.2 min. On to `CSC(=O)c1c(C(F)F)nc(C(F)(F)F)c(C(=O)SC)c1CC(C)C` [Dithiopyr], for which the LC retention time was 11.7 min. As for `CN(C)C(=O)Nc1ccc(Cl)c(Cl)c1` [Diuron], the LC retention time was 8.64 min. As to `CC(CN1CCN(CCOCCO)CC1)CN1c2ccccc2Sc2ccccc21` (stereo not drawn) [Dixyrazine], the LC retention time is 9.08 min.

On to `CC(CCc1ccc(O)cc1)NCCc1ccc(O)c(O)c1` (stereo not drawn) [Dobutamine], for which the LC retention time is 4.21 min. As to `CCCCCCCCCCCCN=C(N)N` [Dodine (Ion1+)], the LC retention time is 11.2 min. With `O=c1[nH]c2ccccc2n1CCCN1CCC(n2c(=O)[nH]c3cc(Cl)ccc32)CC1` [Domperidone], the LC retention time is 6.27 min. The result for `COc1cc2c(cc1OC)C(=O)C(CC1CCN(Cc3ccccc3)CC1)C2` (stereo not drawn) [Donepezil] reads 5.81 min; that for `CCNC1CC(C)S(=O)(=O)c2sc(S(N)(=O)=O)cc21` (stereo not drawn) [Dorzolamide], 3.19 min. The result for `CN(C)CCC=C1c2ccccc2CSc2ccccc21` [Dosulepin] reads 7.61 min; that for `CCN1CC(CCN2CCOCC2)C(c2ccccc2)(c2ccccc2)C1=O` (stereo not drawn) [Doxapram], 6.23 min; that for `CNCCC=C1c2ccccc2COc2ccccc21` [Doxepin-Nor], 7.03 min. For `CN(C)CCC=C1c2ccccc2COc2ccccc21` [Doxepin], the LC retention time is 7.01 min. With `CC1c2cccc(O)c2C(O)=C2C(=O)C3(O)C(O)=C(C(N)=O)C(=O)C(N(C)C)C3C(O)C21` (stereo not drawn) [Doxycycline], the LC retention time is 6.2 min.

For `CN(C)CCOC(C)(c1ccccc1)c1ccccn1` (stereo not drawn) [Doxylamine], the LC retention time is 5.18 min. Regarding `Cc1[nH]oc(=O)c1N=Nc1ccccc1Cl` [Drazoxolon], the LC retention time was 10.3 min. Turning to `CCN(CC)CCOC(=O)C(c1ccccc1)C1CCCCC1` (stereo not drawn) [Drofenine], the LC retention time is 9.19 min. Turning to `CCCCc1oc2ccc(NS(C)(=O)=O)cc2c1C(=O)c1ccc(OCCCN(CCCC)CCCC)cc1` [Dronedarone], the LC retention time was 10.1 min.

For `O=C(CCCN1CC=C(n2c(=O)[nH]c3ccccc32)CC1)c1ccc(F)cc1` [Droperidol], the LC retention time is 6.16 min. On to `OCC(O)CN1CCN(c2ccccc2)CC1` (stereo not drawn) [Dropropizine], for which the LC retention time was 3.79 min.
